# Assay results: US20040009927A1, “Methods and compounds for reducing biofilm formulation” (priority 2002, published 2004)
# Tested on: MG1655 and its csrA mutant TRMG1655, cya mutants and cya wild type
# Conditions: cAMP 2 or 5 mM in growth medium; in most cases
smiles,measurement,value
"Nc1ncnc2c1ncn2[C@@H]1O[C@@H]2COP(=O)(O)O[C@H]2[C@H]1O [cAMP, cyclic AMP]",biofilm formation by cya wild type strains,increased biofilm formation
